Here are results for one molecule from BindingDB's records for patent US20250346571 (Xizang Haisco Pharmaceutical, 2025).

SMILES strings stand for the structures.

In general, IC50 refers to the point on the concentration scale where inhibition reaches its midpoint. The low end stands for greater potency, the high end for weaker potency.

The test concerns the target Poly [ADP-ribose] polymerase 1 (Homo sapiens, UniProt P09874). Kind of test: PARP-1 Enzyme Activity Test Experiment. The protocol:
PARP-1 chemical […] detection kit was purchased from BPS Bioscience. The histone solution in the kit was diluted 5× with 1×PBS, and 25 μL of the diluted histone solution was added to a microwell plate and incubated overnight at 4° C. After the incubation, the plate was washed three times with PBST (0.05% Tween-20). 100 μL of the blocking solution was added to the microwell plate and incubated at 25° C. for 90 minutes. After the incubation was completed, the plate was washed three times with PBST. 2.5 μL of compounds at different concentrations diluted in test buffer and 12.5 μL of substrate mixed solution (1.25 μL 10×PARP test buffer; 1.25 μL 10×PARP test mixed solution; 2.5 μL Activated DNA, 7.5 μL double-distilled water) were added to the microwell plate. The PARP-1 enzyme was diluted to 2 ng/μL, […] was added to the microwell plate, and the reaction system was incubated at 25° C. for 60 minutes. After the incubation was completed, the plate was washed three times with PBST. Streptavidin-HRP was diluted 50× with a blocking solution, and 25 μL of the diluent was added to the microwell plate and incubated at 25° C. for 30 minutes. […] ELISA ECL substrate A and substrate B were uniformly mixed at a ratio of 1:1 (v/v), 50 μL of the mixture was added to the microwell plate, and the chemiluminescence value was read.

Chain of Poly [ADP-ribose] polymerase 1 (P09874 whole entry): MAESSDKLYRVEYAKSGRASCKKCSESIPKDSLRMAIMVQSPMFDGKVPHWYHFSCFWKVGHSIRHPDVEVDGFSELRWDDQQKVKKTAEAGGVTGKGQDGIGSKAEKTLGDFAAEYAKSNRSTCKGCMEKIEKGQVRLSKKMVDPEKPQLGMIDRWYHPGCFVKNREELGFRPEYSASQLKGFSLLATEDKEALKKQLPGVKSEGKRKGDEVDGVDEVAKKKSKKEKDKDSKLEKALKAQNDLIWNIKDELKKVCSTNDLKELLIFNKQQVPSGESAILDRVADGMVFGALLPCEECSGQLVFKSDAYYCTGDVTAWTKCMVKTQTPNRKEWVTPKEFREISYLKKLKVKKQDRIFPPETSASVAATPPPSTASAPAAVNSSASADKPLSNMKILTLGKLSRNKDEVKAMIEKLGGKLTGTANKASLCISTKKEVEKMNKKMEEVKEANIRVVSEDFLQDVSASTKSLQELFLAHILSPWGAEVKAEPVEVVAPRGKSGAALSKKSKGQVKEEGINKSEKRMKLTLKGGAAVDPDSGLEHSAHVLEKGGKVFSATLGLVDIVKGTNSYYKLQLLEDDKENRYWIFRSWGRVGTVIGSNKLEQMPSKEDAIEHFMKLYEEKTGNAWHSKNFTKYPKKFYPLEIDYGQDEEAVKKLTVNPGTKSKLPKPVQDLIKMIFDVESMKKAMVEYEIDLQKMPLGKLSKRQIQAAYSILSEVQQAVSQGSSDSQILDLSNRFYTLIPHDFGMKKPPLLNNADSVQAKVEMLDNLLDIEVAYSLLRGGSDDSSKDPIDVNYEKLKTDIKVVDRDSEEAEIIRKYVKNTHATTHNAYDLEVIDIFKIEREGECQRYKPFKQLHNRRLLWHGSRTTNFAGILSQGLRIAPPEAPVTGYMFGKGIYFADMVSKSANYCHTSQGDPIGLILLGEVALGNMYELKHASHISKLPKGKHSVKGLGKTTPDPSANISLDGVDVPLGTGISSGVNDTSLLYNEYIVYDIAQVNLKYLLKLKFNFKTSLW

On to `Cn1cc(NC(=O)c2ccc(N3CCN(Cc4ccc5nc(C(F)F)c(=O)[nH]c5c4F)CC3)c(F)n2)cn1` [US20250346571, Compound 15], for which the IC50 is under 5 nM.
